test: recombinant barcode read abundance after kanamycin selection (control-corrected) (log10(CPM+1)); higher = more efficient recombination; sequences stand for … in AGTGCAGAGAAAATCGGCCAGTTTTCTCTGCCTGCAGTCCGCATGCCGT…AGATTTATGCAGCGGACTGCCTTTCTCCCAAAGTGATAAACCGGACAGTATCATGGACCGGTTTTCCCGGTAATCCGTATTTGCAAGGTTGGTTTCACT; site = the 11-nt target
Outline: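 Pooled oligos, each joining a target to an IS621 bridge RNA target-binding loop, were cloned and co-electroporated with a donor plasmid into E. coli. Selective plates carried chloramphenicol/ampicillin/kanamycin and 0.1 mM IPTG, while chloramphenicol/ampicillin LB agar served as control, with two replicates of each. Recombination efficiency rests on averaged, control-corrected counts per million of barcodes at recombinant junctions, shown as log10(CPM+1).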
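Further: IS621 recombinase and bridge RNA in Escherichia coli cells.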

Sequence | recombinant barcode read abundance (log10)
GCTCCTACTTGGGTTCTAACCTGTTGCCT (site GCTCCTACTAG) | 0.0272
GCTCCTACTTGGGTTCTAACCTGTTGCCT (site GGTCCTACTAG) | 0.48
GCTCCTACTTGGGTTCTAACCTGTTGCCT (site GTTCCTACTAG) | 0.108
GCTCGGGCTTGGGTTCTAACCTGTTGCGG (site ATGTCCTCTTG) | 0.0124
GCTCGGGCTTGGGTTCTAACCTGTTGCGG (site GCTCGGGCTCC) | 2.6
GCTCTAGCTTGGGTTCTAACCTGTTGCCT (site GCACAAGCTAG) | 0.0696
GCTCTAGCTTGGGTTCTAACCTGTTGCCT (site GCTCTAGCTAG) | 0.0295
GCTGAGACTTGGGTTCTAACCTGTTGCGT (site CTCTGTCCTCA) | 0.237
GCTGAGACTTGGGTTCTAACCTGTTGCGT (site GCTGAGACTAC) | 2.04
GCTGAGGCTTGGGTTCTAACCTGTTGCTG (site GCTGAGGCTCA) | 1.05
GCTGAGGCTTGGGTTCTAACCTGTTGCTG (site TCTGAGTCTCA) | 0.256
GCTGGGTCTTGGGTTCTAACCTGTTGCCT (site GATGGGTCTAG) | 0.0435
GCTGGGTCTTGGGTTCTAACCTGTTGCCT (site GCTGGGTCTAG) | 0.814
GCTTACCCTTGGGTTCTAACCTGTTGCTA (site GCTTACCCTTA) | 0.36
GCTTACCCTTGGGTTCTAACCTGTTGCTA (site TAGCTAGCTAC) | 0.0382
GCTTCGGCTTGGGTTCTAACCTGTTGCCT (site GCATCGGCTAG) | 0.193
GCTTCGGCTTGGGTTCTAACCTGTTGCCT (site GCCTCGGCTAG) | 0.0138
GCTTCGGCTTGGGTTCTAACCTGTTGCCT (site GCGTCGGCTAG) | 0.0514
GCTTCGGCTTGGGTTCTAACCTGTTGCCT (site GCTTCGGCTAG) | 0.282
GCTTGAACTTGGGTTCTAACCTGTTGCTT (site GCTTGAACTAA) | 0.292
GCTTGAACTTGGGTTCTAACCTGTTGCTT (site GGTTGAACTAT) | 0.0501
GCTTGGCCTTGGGTTCTAACCTGTTGCCT (site CCTTGGTCTAG) | 0.211

Sequence | recombinant barcode read abundance (log10)
GCTTGGCCTTGGGTTCTAACCTGTTGCCT (site GCTTGGCCTAG) | 0.188
GCTTGGTCTTGGGTTCTAACCTGTTGCGA (site CTAGCTCCTAA) | 0.173
GCTTGGTCTTGGGTTCTAACCTGTTGCGA (site GCTTGGTCTTC) | 1.57
GGAAAGACTTGGGTTCTAACCTGTTGCCT (site GGAAAGACTAG) | 1.58
GGAAAGACTTGGGTTCTAACCTGTTGCCT (site GGCAAGACTAG) | 0.18
GGAAAGACTTGGGTTCTAACCTGTTGCCT (site GGGAAGACTAG) | 0.297
GGAAAGACTTGGGTTCTAACCTGTTGCCT (site GGTAAGACTAG) | 0.505
GGAAGCTCTTGGGTTCTAACCTGTTGCTT (site GGAAGCTCTAA) | 0.591
GGAAGCTCTTGGGTTCTAACCTGTTGCTT (site GTACGCTCTAA) | 0.0116
GGAAGGTCTTGGGTTCTAACCTGTTGCAT (site ACGTCCACTTG) | 0.0537
GGAAGGTCTTGGGTTCTAACCTGTTGCAT (site GGAAGGTCTAT) | 1.98
GGAATGACTTGGGTTCTAACCTGTTGCCT (site GAAATGACTAG) | 0.344
GGAATGACTTGGGTTCTAACCTGTTGCCT (site GCAATGACTAG) | 0.726
GGAATGACTTGGGTTCTAACCTGTTGCCT (site GGAATGACTAG) | 2.02
GGAATGACTTGGGTTCTAACCTGTTGCCT (site GTAATGACTAG) | 0.545
GGACCATCTTGGGTTCTAACCTGTTGCCT (site GGACAATCTAG) | 0.29
GGACCATCTTGGGTTCTAACCTGTTGCCT (site GGACCATCTAG) | 0.915
GGACCATCTTGGGTTCTAACCTGTTGCCT (site GGACGATCTAG) | 0.146
GGACCATCTTGGGTTCTAACCTGTTGCCT (site GGACTATCTAG) | 0.276
GGACCCTCTTGGGTTCTAACCTGTTGCCT (site AGACCCTCTAG) | 1.09
GGACCCTCTTGGGTTCTAACCTGTTGCCT (site CGACCCTCTAG) | 0.406
GGACCCTCTTGGGTTCTAACCTGTTGCCT (site GGACCCTCTAG) | 1.96

Sequence | recombinant barcode read abundance (log10)
GGACCCTCTTGGGTTCTAACCTGTTGCCT (site TGACCCTCTAG) | 0.353
GGACCTCCTTGGGTTCTAACCTGTTGCAT (site GGACCTCCTAA) | 0.342
GGACCTCCTTGGGTTCTAACCTGTTGCAT (site GGACCTCCTAC) | 0.805
GGACCTCCTTGGGTTCTAACCTGTTGCAT (site GGACCTCCTAG) | 0.0883
GGACCTCCTTGGGTTCTAACCTGTTGCAT (site GGACCTCCTAT) | 1.96
GGACCTCCTTGGGTTCTAACCTGTTGCGT (site GGACCTCCTAA) | 0.503
GGACCTCCTTGGGTTCTAACCTGTTGCGT (site GGACCTCCTAC) | 3.05
GGACCTCCTTGGGTTCTAACCTGTTGCGT (site GGACCTCCTAG) | 0.272
GGACCTCCTTGGGTTCTAACCTGTTGCGT (site GGACCTCCTAT) | 1.71
GGACGATCTTGGGTTCTAACCTGTTGCCT (site GGACAATCTAG) | 0.471
GGACGATCTTGGGTTCTAACCTGTTGCCT (site GGACCATCTAG) | 0.0164
GGACGATCTTGGGTTCTAACCTGTTGCCT (site GGACGATCTAG) | 1.54
GGACGATCTTGGGTTCTAACCTGTTGCCT (site GGACTATCTAG) | 0.357
GGACGCGCTTGGGTTCTAACCTGTTGCGG (site GGACGCGCTCC) | 2.43
GGACGCGCTTGGGTTCTAACCTGTTGCGG (site GGGCCCGCTCC) | 0.075
GGACGGCCTTGGGTTCTAACCTGTTGCCT (site GGACGACCTAG) | 0.523
GGACGGCCTTGGGTTCTAACCTGTTGCCT (site GGACGCCCTAG) | 0.133
GGACGGCCTTGGGTTCTAACCTGTTGCCT (site GGACGGCCTAG) | 1.35
GGACGGCCTTGGGTTCTAACCTGTTGCCT (site GGACGTCCTAG) | 0
GGAGAAGCTTGGGTTCTAACCTGTTGCCT (site GGAGAAGCTAG) | 2.11
GGAGAAGCTTGGGTTCTAACCTGTTGCCT (site GGAGACGCTAG) | 0.569
GGAGAAGCTTGGGTTCTAACCTGTTGCCT (site GGAGAGGCTAG) | 1.15

Sequence | recombinant barcode read abundance (log10)
GGAGAAGCTTGGGTTCTAACCTGTTGCCT (site GGAGATGCTAG) | 0.158
GGAGCTTCTTGGGTTCTAACCTGTTGCCT (site GGAGCTTCTAG) | 1.33
GGAGCTTCTTGGGTTCTAACCTGTTGCCT (site GTACCTTCTAG) | 0.256
GGAGGTCCTTGGGTTCTAACCTGTTGCCG (site ACTCAGACTGT) | 0.161
GGAGGTCCTTGGGTTCTAACCTGTTGCCG (site GGAGGTCCTCG) | 1.79
GGAGTCCCTTGGGTTCTAACCTGTTGCGA (site GGAGTCCCTTC) | 2.39
GGAGTCCCTTGGGTTCTAACCTGTTGCGA (site GGATTCCCTTG) | 0.0458
GGATACACTTGGGTTCTAACCTGTTGCCA (site GGATACACTTG) | 1.35
GGATACACTTGGGTTCTAACCTGTTGCCA (site GGATCCACTTG) | 0.041
GGATACACTTGGGTTCTAACCTGTTGCCA (site GGATGCACTTG) | 0.0123
GGATACACTTGGGTTCTAACCTGTTGCCA (site GGATTCACTTG) | 0.274
GGATGGACTTGGGTTCTAACCTGTTGCTT (site GGATAGCCTAA) | 0.0315
GGATGGACTTGGGTTCTAACCTGTTGCTT (site GGATGGACTAA) | 1.96
GGCAAACCTTGGGTTCTAACCTGTTGCGG (site CATGGGACTAT) | 0.0629
GGCAAACCTTGGGTTCTAACCTGTTGCGG (site GGCAAACCTCC) | 2.09
GGCAACTCTTGGGTTCTAACCTGTTGCCT (site AAGTTAGCTCC) | 0
GGCAACTCTTGGGTTCTAACCTGTTGCCT (site GGCAACTCTAG) | 0.0853
GGCACCGCTTGGGTTCTAACCTGTTGCCT (site GGCACAGCTAG) | 0.0859
GGCACCGCTTGGGTTCTAACCTGTTGCCT (site GGCACCGCTAG) | 0.905
GGCACCGCTTGGGTTCTAACCTGTTGCCT (site GGCACGGCTAG) | 0.164

— the supplement of paper PMC11208160
